According to PMC5196488 (International Journal for Parasitology: Drugs and Drug …, 2016):

Legend:
S7.1R (Dj-S7.1R) [1] = molecular target: T1, S7.1R (Dj-S7.1R) (Dugesia japonica, UniProt O15969); assay: GloSensor cAMP luminescence in transfected HEK293 cells, peak amplitude; type: cell-based
T1 sequence (O15969 1-478): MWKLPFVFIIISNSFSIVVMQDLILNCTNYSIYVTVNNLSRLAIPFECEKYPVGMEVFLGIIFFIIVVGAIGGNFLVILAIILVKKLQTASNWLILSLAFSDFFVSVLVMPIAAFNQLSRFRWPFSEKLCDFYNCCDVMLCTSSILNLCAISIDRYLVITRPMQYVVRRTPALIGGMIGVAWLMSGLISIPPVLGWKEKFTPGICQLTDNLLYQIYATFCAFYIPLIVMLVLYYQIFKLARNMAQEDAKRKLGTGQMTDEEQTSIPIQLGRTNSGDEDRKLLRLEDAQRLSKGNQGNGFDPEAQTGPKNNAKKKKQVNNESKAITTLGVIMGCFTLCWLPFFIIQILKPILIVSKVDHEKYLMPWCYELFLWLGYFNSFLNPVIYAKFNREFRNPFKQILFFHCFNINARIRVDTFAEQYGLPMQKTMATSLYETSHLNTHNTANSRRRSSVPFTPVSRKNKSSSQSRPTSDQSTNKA

S7.1R (Dj-S7.1R) [2] = molecular target: T1, S7.1R (Dj-S7.1R); type: cell-based

IC50 (S7.1R (Dj-S7.1R) [2]) [nM]	Compound	EC50 (S7.1R (Dj-S7.1R) [1]) [nM]
–	NCCc1c[nH]c2ccc(O)cc12 [5-HT]	82 ± 5
1800 ± 500	CC(C)C[C@H]1C(=O)N2CCC[C@H]2[C@]2(O)O[C@](NC(=O)[C@@H]3C=C4c5cccc6[nH]c(Br)c(c56)C[C@H]4N(C)C3)(C(C)C)C(=O)N12 [bromocriptine]	–
